# PMC11923902, “Structural Insights into the Substrate Recognition of Ginsenoside Glycosyltransferase Pq3‐O‐UGT2” (Advanced Science, 2025)
# Target: T1, Pq3-O-UGT2 (Panax quinquefolius, UniProt A0A0M4ME80)
# T1 construct: pET-28a, C-terminal TEV site and 6xHis tag, E. coli Rosetta (DE3); Ni-NTA, HiTrap Q, Mono Q, Superdex 200; monomer; domains a.a; 1-442
# T1 sequence (A0A0M4ME80 1-442): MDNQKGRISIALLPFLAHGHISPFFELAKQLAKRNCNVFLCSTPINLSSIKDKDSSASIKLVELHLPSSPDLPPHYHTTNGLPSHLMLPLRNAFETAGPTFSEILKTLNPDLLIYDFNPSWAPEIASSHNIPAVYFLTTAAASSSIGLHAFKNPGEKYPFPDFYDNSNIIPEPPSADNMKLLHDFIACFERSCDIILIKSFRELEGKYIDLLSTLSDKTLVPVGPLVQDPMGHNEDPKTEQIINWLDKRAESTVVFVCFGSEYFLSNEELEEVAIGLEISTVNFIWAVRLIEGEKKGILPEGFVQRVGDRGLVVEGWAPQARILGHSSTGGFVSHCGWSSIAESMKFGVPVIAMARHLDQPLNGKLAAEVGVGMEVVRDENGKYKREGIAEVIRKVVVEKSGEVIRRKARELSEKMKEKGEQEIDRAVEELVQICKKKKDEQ
# Assay: X-ray crystallography, co-crystal, […] Å
# Conditions: acceptor-binding pocket in N-terminal domain
compound,measurement,value
"CC(C)=CCC[C@](C)(O)[C@H]1CC[C@]2(C)[C@@H]1[C@H](O)C[C@@H]1[C@@]3(C)CC[C@H](O[C@@H]4O[C@H](CO)[C@@H](O)[C@H](O)[C@H]4O)C(C)(C)[C@@H]3CC[C@]12C [Rh2, Ginsenoside Rh2]","X-ray crystallography, co-crystal, 3.5 Å",we solved crystal structures of apo Pq3‐O‐UGT2 and its complex with Rh2
